Marks after values point to notes of the source that are not given here.
Assays:
LOX mRNA = test: Real-time PCR of inflamed paw tissue, LOX gene expression; assay type: in vivo, Mouse; settings: paw tissue after formalin test, 2^-ΔΔCt method, means ± SD
stomach = test: Acute ulcerogenic side effect; assay type: in vivo; settings: mice; for Abou Zeit Har Score (ulcer index): intraperitoneal, indomethacin 5 mg/kg, celecoxib 20 mg/kg, means ± SD; for Gastric mucosa finding (ulcers) on examination: stomach examined after sacrifice
COX-2 mRNA = test: Real-time PCR of inflamed paw tissue, COX-2 gene expression; assay type: in vivo, Mouse; settings: paw tissue after formalin test; 2^-ΔΔCt method; means ± SD
COX-1 mRNA = test: Real-time PCR of inflamed paw tissue, COX-1 gene expression; assay type: in vivo, Mouse; settings: paw tissue after formalin test; 2^-ΔΔCt method; means ± SD

Row | SMILES | LOX mRNA relative expression (real-time PCR) (LOX mRNA) | LOX mRNA relative expression (real-time PCR) (LOX mRNA; listed as indomethacin) | Abou Zeit Har Score (ulcer index) (stomach) | Gastric mucosa finding (ulcers) on examination (stomach) | COX-2 mRNA relative expression (real-time PCR) (COX-2 mRNA) | COX-1 mRNA relative expression (real-time PCR) (COX-1 mRNA)
1 | COc1ccc2c(c1)c(CC(=O)O)c(C)n2C(=O)c1ccc(Cl)cc1 [Indomethacin] | 1.32 ± 0.01 | not affected | 11.2 ± 1.64 | large ulcers | 0.17 ± 0.01^a | 0.82 ± 0.02
2 | Cc1ccc(-c2cc(C(F)(F)F)nn2-c2ccc(S(N)(=O)=O)cc2)cc1 [Celecoxib] |  |  | 0.6 ± 0.58 | preserved the integrity of the mucosa |  | 
